{
  "source": "patent US12485100B2",
  "about": "“Treatment of menstrual cycle-induced symptoms” (Period Pill BV, priority 2019, dated 2025)",
  "key": {"[1]": {"test_system": "women with menstrual cycle-induced symptoms (e.g. PMS, PMDD)", "experiment": "Closed label trials of 3-MMC for menstrual cycle-induced symptoms (case reports of 11 women)", "type": "in vivo, human", "description": "The following case studies exemplify some aspects of some embodiments of the methods of the present invention for treating perimenstrual disorders in subjects suffering at least one menstrual cycle-induced symptom by administering 3-MMC.\nDetailed reports of 11 experiences of women with unlabeled (“pill”) 3-MMC for menstrual cycle-induced symptoms.\nBetween the second half of 2018 and the first months of 2019, eleven women participated in a blinded trial of 3-MMC (the “pill”) administered to alleviate their menstrual cycle-induced symptoms. The subjects tried different doses ranging from 12.5 mg. up to 50 mg.\nEach one of the women used the 3-MMC for relief for at least two to three consecutive menstrual periods, with the number of trials varying from two to seven per woman, making a total of 45 trials.\nThus, the experience with 3-MMC for menstrual cycle-induced symptoms reported here is from […] separate trials."}, "[2]": {"details": "animal models, cited from earlier work"}, "[3]": {"details": "12.5 mg then 25 mg with an interval of five hours (Ana)"}, "[4]": {"details": "one dose of 12.5 mg plus one dose of 25 mg, total 37.5 mg"}, "[5]": {"details": "one dose of 12.5 mg, individual trials"}, "[6]": {"details": "one dose of 25 mg, individual trials"}, "[7]": {"details": "two doses of 12.5 mg (Ana: interval of five hours; Jenny: equivalent to 25 mg)"}, "[8]": {"details": "two doses of 25 mg, one hour interval, total 50 mg (Katy)"}},
  "note": "“Also recorded” adds a separate entry of the source.",
  "data": [
    {"smiles": "CNC(C)C(=O)c1cccc(C)c1", "note": "(centres unmarked) [3-MMC, 3-methylmethcathinone]", "values": [
      {"measurement": "relief of symptoms at low dose (overview)", "setting": "[1]; 12.5 mg", "result": "while not consistent, was often effective in providing relief of symptoms"},
      {"measurement": "Psychological reaction", "setting": "[1]; [3]", "result": "experienced less emotional distress and felt much calmer"},
      {"measurement": "Side effects", "setting": "[1]; [3]", "result": "an outbreak of acne"},
      {"measurement": "Response summary of the subject", "setting": "[1]; 37.5 mg dose", "result": "more aware of themself, more concentrated, energetic, daring, calmer, but they would still be irritated or angry; also recorded: Rebecca felt actually very good"},
      {"measurement": "undesired side effects (overview)", "setting": "[1]; 30-35 mg", "result": "some undesired side effects, such as tachycardia or temperature changes were occasionally more noticeable"},
      {"measurement": "effect when administered in anticipation of symptoms", "setting": "[1]; administration prior to symptom onset", "result": "can significantly reduce the intensity as well as duration of many menstrual cycle induced symptoms"},
      {"measurement": "most commonly reported psychological and emotional effects", "setting": "[1]; all subjects", "result": "enhanced their overall sense of well-being, increased energy levels, induced calmness and relaxation and heightened abilities of concentration; also recorded: a sense of relaxation and calm, often combined with heightened energy and ability to concentrate"},
      {"measurement": "most commonly reported side effects", "setting": "[1]; all subjects, 12.5-50 mg", "result": "tachycardia, sensation of body temperature changes (usually feeling warmer or sometimes colder) and sweating"},
      {"measurement": "overall reported experience / relief of symptoms", "setting": "[1]; eleven women, about 60 trials, doses 12.5 mg up to 50 mg", "result": "Ten out of the eleven reported a rather good to a very positive experience; also recorded: A desired positive effect was achieved with most trials; also recorded: provided relief from more than one of the reported menstrual cycle-induced symptoms"},
      {"measurement": "side effects, individual subject's summary over all their doses", "setting": "[1]; individual subjects, all doses taken", "result": "they never perceived non-desired side-effects; also recorded: increased heartbeat and stomach pain on empty stomach; also recorded: noticed body temperature changes; also recorded: an unfamiliar tingling at the back of the tongue and throat; also recorded: They experienced no side effects or physical reactions worth mentioning; also recorded: had no physical reactions or undesired side effects with any of the doses; also recorded: some light and non-desirable effects such as body temperature changes"},
      {"measurement": "Psychological reaction", "setting": "[1]; [4]", "result": "more willing to do things with an energetic flow that lasted up to four hours; also recorded: they could still sense anger and irritation, but now more in control; also recorded: They felt less irritated, less angry and more relaxed; also recorded: No perceived psychological effect; also recorded: felt very much calmer and much more relaxed than usual; also recorded: felt more awake, more energetic, more alive, therefore less tired and irritated"},
      {"measurement": "Side effects", "setting": "[1]; [4]", "result": "Accelerated heartbeat, dizziness, feeling hot and sweating and Accelerated heartbeat, sweating and lack of appetite and None and Sweating and appetite loss"},
      {"measurement": "Psychological reaction", "setting": "[1]; [5]", "result": "felt more emotionally stable after one hour, less oversensitive, less anxious and they had a slightly heightened mood and felt less depressed, not lethargic, down or exhausted anymore and They were no longer feeling down and exhausted and Exhaustion, feeling down, mood swings, feeling alone and helpless, over sensitive, powerlessness, forgetfulness, willing to cry and Experiencing less anxiety and nervousness, feeling calmer and not very focused, only a little and less irritable but not a major difference and more relaxed, less emotionally distressed and Calmer and more stable and less mood swings, less upset, less emotional and less tired and Ines felt calmer, less nervous and emotional and less distressed and tense and None (they felt no effect whatsoever with this small dose) and None and None, not better nor worse"},
      {"measurement": "Side effects", "setting": "[1]; [5]", "result": "perceived no negative physical reactions or side effects and Stomach pain and none and none (apart from feeling warmer) and Tingling tongue, light somnolence and None"},
      {"measurement": "Psychological reaction", "setting": "[1]; [6]", "result": "emotional distress, mood swings and anxiety decreased; also recorded: Ana felt calmer and more relaxed; also recorded: felt less angry and irritated; also recorded: they were more focused, having a heightened mood, they felt less helpless and more in control; also recorded: experienced no emotional distress or feeling down or any tension; also recorded: no longer feeling low, anxious or distressed; also recorded: feeling focused and motivated to study; also recorded: feeling focused and more concentrated; also recorded: they could focus and concentrate on their studies and was also more motivated; also recorded: they felt relaxed, calmer; also recorded: Fanny felt calmer and stable; also recorded: no longer feeling upset, felt a lot calmer; also recorded: Small, but transient improvement in their mood; also recorded: felt more relaxed, less tense; also recorded: feeling noticeably less upset and less sad; also recorded: Jenny felt better, less anxious, less unhappy; also recorded: felt better and more relaxed; also recorded: Her sadness faded away; also recorded: relief of the sadness, not down or stressed anymore; also recorded: experienced slightly less tension; also recorded: a bit calmer, after two hours very relaxed, not crying anymore"},
      {"measurement": "Side effects", "setting": "[1]; [6]", "result": "none and None and stomach ache (on an empty stomach) and a higher heart rate and Cold hands and feet and drowsiness and some muscle pain or tension and Temporal slight stomach and muscle pain and Perceived body temperature changes, tingling sensation in the throat and Difficulty to go to sleep and somewhat tired and body temperature changes"},
      {"measurement": "interaction with paracetamol", "setting": "[1]; one subject (Bea), 12.5 mg 3-MMC combined with paracetamol", "result": "did not experience any undesirable interactions with the 3-MMC; also recorded: without any noticeable substance interaction or undesired effect"},
      {"measurement": "side effects with repeated use", "setting": "[1]; repeated use", "result": "side-effects tend to diminish over time with repeated use of 3-MMC"},
      {"measurement": "effect when administered after onset of symptoms", "setting": "[1]; some subjects", "result": "3-MMC was effective even when administered after the onset of menstrual cycle-induced symptoms"},
      {"measurement": "effect on somatic symptoms", "setting": "[1]; some subjects (e.g. headache, physical pain)", "result": "administration of 3-MMC resulted in disappearance of somatic symptoms (e.g. headache); also recorded: can also produce a reduction in somatic symptoms (e.g. physical pain); also recorded: some of the subjects reported alleviation of somatic symptoms"},
      {"measurement": "perceived effect", "setting": "[1]; subject Gertie, 40 mg in one intake", "result": "a bit too much"},
      {"measurement": "perceived benefit", "setting": "[1]; subject Gertie, doses between 10 mg and 20 mg", "result": "They didn't perceive any benefit"},
      {"measurement": "perceived benefit", "setting": "[1]; subject Gertie, doses between 20 and 30 mg", "result": "They felt positive effects"},
      {"measurement": "response and psychological effects", "setting": "[1]; subject Gertie, one or two pills a couple of days before menstruation, usual dose 20-25 mg", "result": "feels less tense; also recorded: they are able to take decisions again; also recorded: a radical positive life change"},
      {"measurement": "response summary", "setting": "[1]; subject Ines, alternating doses of 12.5 mg and 25 mg, seven occasions", "result": "The main effect was calming and relaxing; also recorded: no significant dose response has been observed"},
      {"measurement": "Psychological reaction", "setting": "[1]; [7]", "result": "their emotional distress, feeling down, mood swings, helplessness and anxiety declined; also recorded: felt more energized, no longer down or sad"},
      {"measurement": "Side effects", "setting": "[1]; [7]", "result": "none and None"},
      {"measurement": "Psychological reaction", "setting": "[1]; [8]", "result": "no longer angry although they could still feel irritated; also recorded: They experienced reduced irritability and anger; also recorded: felt more energetic, less irritated and after two hours they were very calm"},
      {"measurement": "Side effects", "setting": "[1]; [8]", "result": "Increased heartbeat, sweating and loss of appetite; also recorded: No noticeable side effects; also recorded: a brief period (one hour) of depression"},
      {"measurement": "cumulative positive effect of repeated administration", "setting": "[1]; two or more consecutive doses within about 24 hours of each other", "result": "taking the pill two consecutive days made the effect of the second one last longer; also recorded: Possibly a cumulative effect; also recorded: a sort of a cumulative positive effect; also recorded: the positive effects of 3-MMC reportedly persisted; also recorded: positive effects persist"},
      {"measurement": "time of peak serum concentrations", "setting": "[2]; after oral administration", "result": "5 to 10", "unit": "min"},
      {"measurement": "apparent plasma half-life", "setting": "[2]; after oral ingestion", "result": "approximately 0.8 hours"}
    ]}
  ]
}
